Results: patent US20200147116A1, “Use of Paeoniflorin-6'-O-benzenesulfonate in treatment of Sjögren's syndrome” (NINGBO ZHIMING BIOTECHNOLOGY CO., LTD., priority 2017, published 2020)
Where “and” joins values, the source holds several entries; their conditions need not be identical. Equal entries are not always repeated. Marks after values point to notes of the source that are not given here.

Key:
Format in all cases: in vivo
[1] = tested on: Sjögren's syndrome model mice (C57BL/6 female mice); test: Saliva amount in induced Sjögren's syndrome model mice (wet weight method after pilocarpine); details: for Saliva amount in SS mice, Pre-administration / Saliva amount, Pre-administration: baseline before administration; for Saliva amount, One week after: one week of administration; for Curative effect judged on saliva amount after one week of medication: high dose of CP-25, TGP, Pae, HCQ at the doses of Table 3
Experimental: […] Water intake, saliva amount and submaxillary gland pathological analysis and score were determined respectively, on the day before administration, the 7th day and 14th day after administration. The therapeutic effects of CP-25 on Sjögren's syndrome were evaluated by comparison of changes of each index before and after treatment. 2 Sjögren's syndrome model mice: C57BL/6 female mice housed in a SPF environment with successful modeling (The animal model was made via repeated multi-point intracutaneous injection of submaxillary gland homogenate of homologous mice to tail and back of mice). The animal model was made via repeated multi-point intracutaneously injection of submaxillary gland homogenate of homologous mice to tail and back of mice, and the mice with successful modeling were randomly assigned to each group according to comprehensive conditions of mice. At the same time, the average weight and status of each group of mice should be as close as possible. […] […] High dose of said pharmaceutical should be incubated for half an hour before use. Before measurement, mice were anesthetized via intraperitoneal injection of 0.05 ml of 2.4% pentobarbital sodium, and the satisfactory anesthesia was smooth breathing, corneal reflex disappearance and limb muscle relaxation. After complete anesthesia, a mouse was placed in slightly tilted trendelenburg position, and its body was kept warm using the heater. The mouse was injected intraperitoneally with 0.1 ml of 0.025 mg/ml Pilocarpine, and 5 min later, a weighed cotton ball was placed in the mouth of the mouse for 10 min. After taking the ball out, the saliva weight of mice was measured by the wet weight method.

[2] = tested on: submaxillary gland in SS mice; test: Histopathological examination and grading of submaxillary gland in SS mice (H&E, Chisholm-Mason scale); details: two weeks of administration, four mice of each group
Experimental: (§1) Mice were sacrificed after two weeks of administration, and then submaxillary glands of four mice of each group were removed and pathologically observed. At first, the submaxillary gland should be fixed in 10% buffered formalin for 24 h, followed by washing, dehydration and clearing, wax-filling, embedding, sectioning and finally H&E staining. […] Results were graded pathologically.
(§2) Note: The histological findings graded of submaxillary glands according to the Chisholm-Mason scale; grade 0, absence of lymphocytic infiltration; grade I, slight lymphocytic infiltration; grade II, moderate lymphocytic infiltration; grade III, one focus of lymphocytic infiltration per 4 mm^2 tissue; grade IV, more than one focus of lymphocytic infiltration per 4 mm^2 tissue (Note: One focus of lymphocytic infiltration has been defined as an aggregate of 50 or more lymphocytes gathered in the labial gland stroma per 4 mm^2 of tissue.

[3] = tested on: NOD mice; test: Saliva amount in NOD mice; details: NOD mice; for Saliva amount in NOD mice, Pre-administration: baseline before administration
Experimental: Before measurement, mice were anesthetized via intraperitoneal injection of 0.05 ml of 2.4% pentobarbital sodium, and the satisfactory anesthesia was smooth breathing, corneal reflex disappearance and limb muscle relaxation. After complete anesthesia, a mouse was placed in slightly tilted trendelenburg position, and its body was kept warm using the heater. The mouse was injected intraperitoneally with 0.1 ml of 0.025 mg/ml Pilocarpine, and 5 min later, a weighed cotton ball was placed in the mouth of the mouse for 10 min. After taking the ball out, the saliva weight of mice was measured by the wet weight method.
Therapeutic effects of on Sjögren's syndrome CP-25 in NOD mice.

[4] = tested on: submaxillary glands in NOD mice; test: Pathological grading of submaxillary glands in NOD mice; details: NOD mice
Experimental: as §1, §2

[5] = tested on: SS mice; test: Organic indexes (spleen, submaxillary gland, thymus) in SS mice; details: 70 mg/kg
Excerpt: 2 Sjögren's syndrome model mice: C57BL/6 female mice housed in a SPF environment with successful modeling (The animal model was made via repeated multi-point intracutaneous injection of submaxillary gland homogenate of homologous mice to tail and back of mice). The animal model was made via repeated multi-point intracutaneously injection of submaxillary gland homogenate of homologous mice to tail and back of mice, and the mice with successful modeling were randomly assigned to each group according to comprehensive conditions of mice. At the same time, the average weight and status of each group of mice should be as close as possible. Paeoniflorin-6′-O-benzenesulfonate, white crystalline powder, purity 98.5%, was dissolved in trace ethanol (75 mg of CP-25 was soluble in 40 μl of ethanol), and then sodium carboxymethylcellulose was added to formulate a suspension of CP-25. Corresponding dose gradient, low dose (17.5 mg/kg), medium dose (35 mg/kg) and high dose (70 mg/kg) of said pharmaceutical should be prepared before medication, stored in 4° C. refrigerator for use. High dose of said pharmaceutical should be incubated for half an hour before use.

[6] = tested on: NOD model mice; test: Organic indexes (spleen, submaxillary gland, thymus) in NOD model mice; details: 70 mg/kg

CCN(CCO)CCCC(C)Nc1ccnc2cc(Cl)ccc12 (stereo not shown) [HCQ, hydroxychloroquine, reference compound]
Saliva amount in SS mice, One week after administration ([1]; Example 1, C57BL/6 SS mice, 80 mg/kg): 18.17 ± 3.65 mg/each mouse/10 min
Saliva amount in SS mice, Pre-administration ([1]; Example 1, C57BL/6 SS mice, dose group 80 mg/kg): 23.17 ± 2.79 mg/each mouse/10 min
Saliva amount, One week after ([1]; SS model mice, 80 mg/kg): 18.17 ± 3.65 mg/10 min
Saliva amount, Pre-administration ([1]; SS model mice, dose group 80 mg/kg): 23.17 ± 2.79 mg/10 min
Curative effect judged on saliva amount after one week of medication ([1]; SS model mice): did not show apparent effect
Score: mice with submaxillary gland pathology Grade 0 ([2]; 80 mg/kg): 0
Score: mice with submaxillary gland pathology Grade I ([2]; 80 mg/kg): 0
Score: mice with submaxillary gland pathology Grade II ([2]; 80 mg/kg): 0
Score: mice with submaxillary gland pathology Grade III ([2]; 80 mg/kg): 3
Score: mice with submaxillary gland pathology Grade IV ([2]; 80 mg/kg): 1^#
Saliva amount in NOD mice, One week after administration ([3]; 80 mg/kg): 17.00 ± 1.61 mg/each mouse/10 min
Saliva amount in NOD mice, Two weeks after administration ([3]; 80 mg/kg): 17.00 ± 1.41 mg/each mouse/10 min
Saliva amount in NOD mice, Pre-administration ([3]; dose group 80 mg/kg): 19.17 ± 3.18 mg/each mouse/10 min
Score: mice with submaxillary gland pathology Grade 0 ([4]; 80 mg/kg): 0
Score: mice with submaxillary gland pathology Grade I ([4]; 80 mg/kg): 0
Score: mice with submaxillary gland pathology Grade II ([4]; 80 mg/kg): 0
Score: mice with submaxillary gland pathology Grade III ([4]; 80 mg/kg): 3
Score: mice with submaxillary gland pathology Grade IV ([4]; 80 mg/kg): 1 ^#

C[C@@]12C[C@@]3(O)O[C@@H](O1)[C@]1(COC(=O)c4ccccc4)[C@H]3C[C@@]12O[C@@H]1O[C@H](CO)[C@@H](O)[C@H](O)[C@H]1O [Pae, Paeoniflorin]
Saliva amount in SS mice, One week after administration ([1]; Example 1, C57BL/6 SS mice, 70 mg/kg): 17.01 ± 2.10 mg/each mouse/10 min
Saliva amount in SS mice, Two weeks after administration ([1]; Example 1, C57BL/6 SS mice, 70 mg/kg, two weeks): 17.17 ± 2.72^ mg/each mouse/10 min
Saliva amount in SS mice, Pre-administration ([1]; Example 1, C57BL/6 SS mice, dose group 70 mg/kg): 23.50 ± 2.89 mg/each mouse/10 min
Saliva amount, One week after ([1]; SS model mice, 70 mg/kg): 17.01 ± 2.10 mg/10 min
Saliva amount, Two weeks after ([1]; SS model mice, 70 mg/kg, two weeks of administration): 17.17 ± 2.72^ mg/10 min
Saliva amount, Pre-administration ([1]; SS model mice, dose group 70 mg/kg): 23.50 ± 2.89 mg/10 min
Curative effect judged on saliva amount after one week of medication ([1]; SS model mice): did not show apparent effect
Spleen index [5]: 9.15 ± 1.44 mg/g
Submaxillary gland index [5]: 3.71 ± 0.68 mg/g
Thymus index [5]: 0.85 ± 0.23 mg/g
Score: mice with submaxillary gland pathology Grade 0 ([2]; 70 mg/kg): 0
Score: mice with submaxillary gland pathology Grade I ([2]; 70 mg/kg): 0
Score: mice with submaxillary gland pathology Grade II ([2]; 70 mg/kg): 0
Score: mice with submaxillary gland pathology Grade III ([2]; 70 mg/kg, 70 mg/kg): 2 and 1
Saliva amount in NOD mice, One week after administration ([3]; 70 mg/kg): 15.40 ± 1.62 mg/each mouse/10 min
Saliva amount in NOD mice, Two weeks after administration ([3]; 70 mg/kg): 14.75 ± 1.25 mg/each mouse/10 min
Saliva amount in NOD mice, Pre-administration ([3]; dose group 70 mg/kg): 19.83 ± 1.94 mg/each mouse/10 min
Spleen index [6]: 5.3 ± 0.5 mg/g
Submaxillary gland index [6]: 4.5 ± 0.5^ mg/g
Thymus index [6]: 1.0 ± 0.1 mg/g
Score: mice with submaxillary gland pathology Grade 0 ([4]; 70 mg/kg): 0
Score: mice with submaxillary gland pathology Grade I ([4]; 70 mg/kg): 0
Score: mice with submaxillary gland pathology Grade II ([4]; 70 mg/kg): 0
Score: mice with submaxillary gland pathology Grade III ([4]; 70 mg/kg): 1
Score: mice with submaxillary gland pathology Grade IV ([4]; 70 mg/kg): 3
